Reference: patent EP4574818A1, “ONIUM SALT OF NITROGEN-CONTAINING HETEROARYL COMPOUND AND PEST CONTROL AGENT” (priority 2022, dated 2024)
Read-outs that look alike come from different tables or passages of the source.

Legend:
Type in all cases: in vivo
[1] = test system: Mythimna separata; assay: Efficacy test against Mythimna separata (treated artificial feed); conditions: 1 µl of emulsion (I) (5% by mass active ingredient) mixed with 0.8 g artificial feed; second-instar larvae; 25°C; after five days
Protocol: (§1) 5 parts by mass of a compound of the present invention, 93.6 parts by mass of dimethylformamide, and 1.4 parts by mass of polyoxyethylene alkyl aryl ether were mixed and dissolved to obtain an emulsion (I) containing 5% by mass of the active ingredient.
0.8 g of commercially-available artificial feed (Insect LFS, manufactured by Nosan Corporation) and 1 µl of the emulsion (I) were mixed well, and then 0.2 g of the mixture per treated area was packed into plastic test containers (each having a capacity of 1.4 ml) as test feeds.
Two second-instar larvae of Mythimna separata were left per treated area, and then the test containers were sealed with plastic covers. The test containers were placed in a thermostatic chamber at 25°C, and, after five days had passed therefrom, the mortality and the feed intake were measured. The test was repeated twice.
In addition, the test was carried out under the same conditions as described above, except that the emulsion (II) was used instead of the emulsion (I), and evaluated as a solvent control area.

[2] = test system: Spodoptera litura; assay: Efficacy test against Spodoptera litura (cabbage leaf immersion); conditions: 144 h, read-out: mortality of Spodoptera litura
Protocol: A cabbage leaf was immersed in the diluted solution for 30 seconds. The cabbage leaf was air-dried and then put in a petri dish, followed by leaving five second-instar larvae of Spodoptera litura therein. The petri dish was placed in a thermostatic chamber at a temperature of 25°C and a humidity of 60%. After six days had passed from leaving the larvae, life or death was assessed and the mortality was calculated. The test was repeated twice.

[3] = test system: Plutella xylostella; assay: Efficacy test against Plutella xylostella (cabbage leaf immersion); conditions: 72 h
Protocol: The emulsion (II) was diluted with water at the same dilution ratio as the diluted solution (I), thereby obtaining a diluted solution (II). A cabbage leaf was immersed in each of the diluted solutions for 30 seconds. Each cabbage leaf after immersion was air-dried and then put in a petri dish, followed by leaving five second-instar larvae of Plutella xylostella therein. The petri dishes were placed in a thermostatic chamber at a temperature of 25°C and a humidity of 60%. After three days had passed from leaving the larvae, life or death was assessed and the mortality was calculated. The test was repeated twice.

[4] = test system: Phyllotreta striolata; assay: Efficacy test against Phyllotreta striolata (sprayed bok-choy seedling); conditions: 168 h, read-out: mortality against the adults of Phyllotreta striolata
Protocol: as §1
The emulsion (I) was diluted with water such that the concentration of the compound of the present invention became 125 ppm by mass. The diluted solution was sprayed to a bok-choy seedling (at the 7th leafe stage) planted in a 3-sun pot. After air-dried, the bok-choy seedling was placed in a plastic cup, and ten adults of Phyllotreta striolata were left therein. The plastic cup was placed in a thermostatic chamber at a temperature of 25°C and a humidity of 65%. After seven days had passed from leaving the adults, life or death was assessed and the mortality was calculated. The test was repeated twice.

[5] = 125 ppm by mass, cabbage leaf immersed 30 seconds, second-instar larvae, 25°C, humidity 60%, after six days
[6] = 125 ppm by mass, cabbage leaf immersed 30 seconds, second-instar larvae of Plutella xylostella, 25°C, humidity 60%, after three days, read-out: mortality
[7] = 125 ppm by mass, sprayed to bok-choy seedling, adults, 25°C, humidity 65%, after seven days

SMILES | mortality of Mythimna separata or feed intake relative to the feed intake at the solvent control area [1] | mortality at 125 ppm [2, 5] | mortality at 125 ppm [3, 6] | other results
Cn1c[n+]([N-]C(=O)c2cc(Cl)nc(Oc3ccc(OC(F)(F)F)cc3)c2)cn1 [Compound 2] | 100% mortality of Mythimna separata or 10% or less of the feed intake | ≥ 80% |  | 
O=C([N-][n+]1ccccc1)c1cc(Cl)nc(Oc2ccc(OC(F)(F)C(F)F)cc2)c1 [Compound 4] | 100% mortality of Mythimna separata or 10% or less of the feed intake | ≥ 80% | ≥ 80% | 
Cc1cc[n+]([N-]C(=O)c2cc(Cl)nc(Oc3ccc(OC(F)(F)C(F)(F)F)cc3)c2)cc1 [Compound 5] |  | ≥ 80% | ≥ 80% | 
COc1cc[n+]([N-]C(=O)c2cc(Cl)nc(Oc3ccc(OC(F)(F)C(F)(F)F)cc3)c2)cc1 [Compound 6] |  | ≥ 80% | ≥ 80% | 
Cn1c[n+]([N-]C(=O)c2cc(Cl)nc(Oc3ccc(OC(F)(F)C(F)(F)F)cc3)c2)cn1 [Compound 8] |  | ≥ 80% |  | 
Cn1cc[n+]([N-]C(=O)c2cc(Cl)nc(Oc3ccc(OC(F)(F)C(F)(F)F)cc3)c2)c1 [Compound 9] |  | ≥ 80% | ≥ 80% | 
O=C([N-][n+]1cccc(F)c1)c1cc(Cl)nc(Oc2ccc(OC(F)(F)C(F)F)cc2)c1 [Compound 11] |  | ≥ 80% | ≥ 80% | 
O=C([N-][n+]1ccccc1)c1cc(Br)nc(Oc2ccc(OC(F)(F)C(F)(F)F)cc2)c1 [Compound 12] |  | ≥ 80% | ≥ 80% | 
O=C([N-][n+]1ccccc1)c1cc(Br)nc(Oc2ccc(OC(F)(F)C(F)F)cc2)c1 [Compound 13] |  | ≥ 80% | ≥ 80% | 
N#Cc1cc(C(=O)[N-][n+]2ccccc2)cc(Oc2ccc(OC(F)(F)C(F)(F)F)cc2)n1 [Compound 14] |  | ≥ 80% | ≥ 80% | 
O=C([N-][n+]1ccccc1)c1cc(Cl)nc(Oc2ccc(C3(C(F)(F)F)CC3)cc2)c1 [Compound 15] |  | ≥ 80% | ≥ 80% | 
O=C([N-][n+]1ccccc1)c1cc(Cl)nc(Oc2ccc(OC(F)(F)C(F)OC(F)(F)F)cc2)c1 (stereo not drawn) [Compound 16] |  | ≥ 80% | ≥ 80% | 
O=C([N-][n+]1cnn(CC(F)(F)F)c1)c1cc(Cl)nc(Oc2ccc(OC(F)(F)C(F)(F)F)cc2)c1 [Compound 17] |  | ≥ 80% | ≥ 80% | 
O=C([N-][n+]1cnn(CC(F)F)c1)c1cc(Cl)nc(Oc2ccc(OC(F)(F)C(F)(F)F)cc2)c1 [Compound 18] |  | ≥ 80% | ≥ 80% | 
CC(C)n1c[n+]([N-]C(=O)c2cc(Cl)nc(Oc3ccc(OC(F)(F)C(F)(F)F)cc3)c2)cn1 [Compound 19] |  | ≥ 80% | ≥ 80% | mortality at 125 ppm [4, 7]: ≥ 80%
O=C([N-][n+]1ccccc1)c1cc(Cl)nc(Oc2ccc(OC(F)(F)C(F)OC(F)(F)C(F)(F)C(F)(F)F)cc2)c1 (stereo not drawn) [Compound 20] |  |  |  | mortality at 125 ppm [2]: ≥ 80%; mortality at 125 ppm ([3]; Plutella xylostella): ≥ 80%; mortality at 125 ppm [4]: ≥ 80%
CCn1c[n+]([N-]C(=O)c2cc(Cl)nc(Oc3ccc(OC(F)(F)C(F)OC(F)(F)C(F)(F)C(F)(F)F)cc3)c2)cn1 (stereo not drawn) [Compound 21] |  |  |  | mortality at 125 ppm [2]: ≥ 80%; mortality at 125 ppm ([3]; Plutella xylostella): ≥ 80%; mortality at 125 ppm [4]: ≥ 80%

SMILES | mortality of Mythimna separata or feed intake relative to the feed intake at the solvent control area [1] | mortality at 125 ppm [2, 5] | mortality at 125 ppm [3, 6] | other results
O=C([N-][n+]1ccccc1)c1cc(Cl)nc(Oc2ccc(OC(F)(F)C(F)OC(F)(F)C(F)(F)C(F)(F)OC(F)(F)F)cc2)c1 (stereo not drawn) [Compound 22] |  |  |  | mortality at 125 ppm [2]: ≥ 80%; mortality at 125 ppm ([3]; Plutella xylostella): ≥ 80%; mortality at 125 ppm [4]: ≥ 80%
CCn1c[n+]([N-]C(=O)c2cc(Cl)nc(Oc3ccc(OC(F)(F)C(F)OC(F)(F)C(F)(F)C(F)(F)OC(F)(F)F)cc3)c2)cn1 (stereo not drawn) [Compound 23] |  |  |  | mortality at 125 ppm [2]: ≥ 80%; mortality at 125 ppm ([3]; Plutella xylostella): ≥ 80%; mortality at 125 ppm [4]: ≥ 80%
O=C([N-][n+]1ccccc1)c1cc(Cl)nc(Oc2ccc(SC(F)(F)F)cc2)c1 [Compound 25, (2-chloro-6-(4-((trifluoromethyl)thio)phenoxy)isonicotinoyl) (pyridin-1-ium-1-yl)amide] |  | ≥ 80% | ≥ 80% | mortality at 125 ppm [4, 7]: ≥ 80%
CCn1c[n+]([N-]C(=O)c2cc(Cl)nc(Oc3ccc(OC(F)(F)F)cc3)c2)cn1 [Compound 165, (2-chloro-6-(4-(trifluoromethoxy)phenoxy)isonicotinoyl)(1-ethyl-1H-1,2,4-triazol-4-ium-4-yl)amide] | 100% mortality of Mythimna separata or 10% or less of the feed intake | ≥ 80% | ≥ 80% | 
O=C([N-][n+]1ccccc1)c1cc(Oc2ccc(OC(F)(F)F)cc2)nc(-c2ccc(F)cc2)c1 [Compound 207] | 100% mortality of Mythimna separata or 10% or less of the feed intake | ≥ 80% | ≥ 80% | 
O=C([N-][n+]1ccccc1)c1cc(Oc2ccc(OC(F)(F)F)cc2)nc(Oc2ccc(OC(F)(F)F)cc2)c1 [Compound 208] |  | ≥ 80% | ≥ 80% | 
N#Cc1ccc(Oc2cc(C(=O)[N-][n+]3ccccc3)cc(Cl)n2)cc1 [Compound 209] | 100% mortality of Mythimna separata or 10% or less of the feed intake |  |  | 
CCn1c[n+]([N-]C(=O)c2cc(Cl)nc(Oc3ccc(C4CC4(Cl)Cl)cc3)c2)cn1 (stereo not drawn) [Compound 210] | 100% mortality of Mythimna separata or 10% or less of the feed intake |  |  | 
CCn1c[n+]([N-]C(=O)c2cc(Cl)nc(Oc3ccc(C4CC4(F)F)cc3)c2)cn1 (stereo not drawn) [Compound 212] | 100% mortality of Mythimna separata or 10% or less of the feed intake |  |  | 
O=C([N-][n+]1ccccc1)c1cc(Cl)nc(Oc2ccc(C3CC3(F)F)cc2)c1 (stereo not drawn) [Compound 213] | 100% mortality of Mythimna separata or 10% or less of the feed intake |  |  | 
O=C([N-][n+]1ccccc1)c1cc(Oc2ccc(OC(F)(F)C(F)(F)F)cc2)nc(C2CC2)c1 [Compound 215, (2-cyclopropyl-6-(4-(perfluoroethoxy)phenoxy)isonicotinoyl)(pyridin-1-ium-1-yl)amide] | 100% mortality of Mythimna separata or 10% or less of the feed intake | ≥ 80% | ≥ 80% | 
CCn1c[n+]([N-]C(=O)c2cc(Cl)nc(Oc3ccc4nc(C(F)(F)F)ccc4c3)c2)cn1 [Compound 216] | 100% mortality of Mythimna separata or 10% or less of the feed intake |  |  | 
O=C([N-][n+]1ccccc1)c1cc(Cl)nc(Oc2cnn(C=C(F)C(F)(F)F)c2)c1 [Compound 217] |  | ≥ 80% |  | 
CCn1c[n+]([N-]C(=O)c2cc(I)nc(Oc3ccc(OC(F)(F)C(F)(F)F)cc3)c2)cn1 [Compound 218] |  | ≥ 80% | ≥ 80% | mortality at 125 ppm [4, 7]: ≥ 80%
COC(=O)c1cc(C(=O)[N-][n+]2ccccc2)cc(Oc2ccc(OC(F)(F)C(F)(F)F)cc2)n1 [Compound 220] |  |  | ≥ 80% | 
O=C([N-][n+]1ccccc1)c1cc(Oc2ccc(SC(F)(F)C(F)F)cc2)nc(-n2cccn2)c1 [Compound 221] |  | ≥ 80% | ≥ 80% | 
